# Assay results from paper PMC5041076, “Ilex kaushue and Its Bioactive Component 3,5-Dicaffeoylquinic Acid Protected Mice from Lipopolysaccharide-Induced Acute Lung Injury” (Scientific Reports, 2016).
# “Also recorded” adds a separate entry of the source. Where two headings read alike, the source gives them in different places.
# Tests used:
# [1] = test system: fMLF/CB-activated neutrophils; assay: Elastase release in fMLF/CB-activated neutrophils; type: cell-based; conditions: for IC50: read-out: IC50 HNE (NE activity / elastase release)
# Protocol: (§1) All assays were performed as described previously[58],[59]. Neutrophils isolated from the blood of healthy volunteers (20–30 years old) were resuspended in a Ca^2+-free HBSS buffer (pH 7.4) at 4 °C before use. O2^.− generation was measured based on reduction of ferricytochrome c. In brief, after supplementation with 0.5 mg/ml ferricytochrome c and 1 mM Ca^2+, neutrophils were equilibrated at 37 °C for 2 min and incubated with the specified drugs for 5 min. Neutrophils were activated using 30 nM fMLF or 100 nM LTB4 for 10 min after addition of cytochalasin B (CB, 1 μg/mL) for 3 min. Changes in absorbance concomitant with reduction of ferricytochrome c at 550 nm were continuously monitored. For elastase release, neutrophils (6 × 10^5 cells/mL) were mixed with methoxysuccinyl-Ala-Ala-Pro-Val-pNA (100 μM) substrate at 37 °C for 5 min. […] Inhibition of superoxide generation and elastase release were calculated in keeping with previous reports.
# [2] = target: T1, Bovine chymotrypsin (Bos taurus, UniProt P00766); assay: Serine protease enzyme inhibition assay, chymotrypsin; type: biochemical; conditions: mean ± S.E.M. (n ≥ 3)
# T1 construct: purchased Sigma-Aldrich C4129
# [3] = test system: Akt; assay: Immunoblotting of Akt phosphorylation in fMLF-activated neutrophils; type: cell-based, human; conditions: 10 μM, 5 min before fMLF (0.1 μM) 0.5 min, Western blot; listed as 3,5-DCQA
# Protocol: (§2) Neutrophils were pretreated with DMSO or 3,5-DCQA (10 μM) for 5 min before fMLF stimulation for 0.5 min at 37 °C. Cells were lysed with lysis buffer consisting of 50 mM HEPES (pH 7.4), 100 mM NaCl, 1 mM Ca^2+, 2 mM Na3VO4, 1 mM phenylmethanesulfonyl fluoride, 5% b-mercaptoethanol, 10 mM p-nitrophenyl phosphate, 1% protease inhibitor cocktail (Sigma-Aldrich) and 1% Triton X-100. Cell lysates were collected by centrifugation at 14,000 rpm for 20 min at 4 °C. After gel electrophoresis and transferring to membranes, samples were blocked with 5% nonfat milk in a mixture of Tris-buffer saline and Tween 20. Target protein was identified by the corresponding primary antibody overnight at 4 °C. Membranes were incubated with horseradish peroxidase-conjugated, secondary anti-rabbit or anti-mouse antibodies at room temperature for 1 h. After washing, enhanced chemiluminescence solution was used and protein expression was analyzed by the BioSpectrum Imaging System (UVP, Upland, CA). The quantitative ratio of target protein was normalized to total protein or GAPDH.
# [4] = target: Human thrombin (Homo sapiens, UniProt P00734); assay: Serine protease enzyme inhibition assay, thrombin
# [5] = test system: human neutrophils; design: method as in PMID 12384183; conditions: 100 μM, human neutrophils ref 35; cited from earlier work
# [6] = target: T2, Human cathepsin G (Homo sapiens, UniProt P08311); assay: Serine protease enzyme inhibition assay, cathepsin G; type: biochemical; conditions: mean ± S.E.M. (n ≥ 3)
# T2 construct: purchased Enzo BML-SE283
# T2 sequence (P08311 21-255): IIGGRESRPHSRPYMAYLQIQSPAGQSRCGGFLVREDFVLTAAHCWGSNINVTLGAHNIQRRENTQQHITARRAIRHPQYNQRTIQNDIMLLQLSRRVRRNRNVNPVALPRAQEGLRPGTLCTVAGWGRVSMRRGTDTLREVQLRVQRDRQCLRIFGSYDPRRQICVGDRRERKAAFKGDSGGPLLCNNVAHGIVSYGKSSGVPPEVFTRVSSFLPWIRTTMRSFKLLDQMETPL
# [7] = test system: fMLF/CB-activated neutrophils; assay: O2.- generation in fMLF/CB-activated neutrophils (ferricytochrome c reduction); type: cell-based, human
# Protocol: as §1
# [8] = test system: Vav; assay: Immunoblotting of Vav phosphorylation in fMLF-activated neutrophils; type: cell-based, human; conditions: 10 μM, 5 min before fMLF (0.1 μM) 0.5 min, Western blot; listed as 3,5-DCQA
# Protocol: as §2
# [9] = after intravenous administration ref 46, 47, 49; cited from earlier work
# [10] = test system: LPS-stimulated RAW 264.7 cells; design: method as in PMID 25975516; conditions: LPS-stimulated RAW 264.7 cells ref 45; cited from earlier work
# [11] = target: T3, Human neutrophil elastase (Homo sapiens, UniProt P08246); assay: Serine protease enzyme inhibition assay, HNE; type: biochemical; conditions: for IC50: enzyme assay, mean ± S.E.M. (n ≥ 3), read-out: IC50 HNE; for selectivity of inhibitory effect among serine proteases: five serine proteases examined
# T3 construct: purchased Enzo BML-SE284
# T3 sequence (P08246 30-267): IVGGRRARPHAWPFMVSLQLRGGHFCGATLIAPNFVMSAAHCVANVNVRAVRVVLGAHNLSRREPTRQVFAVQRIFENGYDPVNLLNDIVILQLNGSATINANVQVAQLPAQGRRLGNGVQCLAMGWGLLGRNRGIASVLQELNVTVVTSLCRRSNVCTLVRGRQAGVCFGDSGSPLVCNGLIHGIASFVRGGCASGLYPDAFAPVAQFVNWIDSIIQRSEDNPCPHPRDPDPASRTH
# [12] = test system: LPS-induced ALI in mice; assay: LPS-induced ALI in mice; type: in vivo, mouse
# Protocol: Mice were randomly divided into nine groups (n = 6 per group): (1) Vehicle, (2) IKWE (500 mg/kg), (3) 3,5-DCQA (50 mg/kg), (4) LPS, (5) LPS + DEX (10 mg/kg), (6) LPS + IKWE (250 mg/kg), (7) LPS + IKWE (500 mg/kg), (8) LPS + 3,5-DCQA (25 mg/kg) and (9) LPS + 3,5-DCQA (50 mg/kg). Agents were dissolved in vehicle solution (PBS containing 10% Tween-80). All animals were pretreated intraperitoneally with 100 μL vehicle solution or agents, respectively, 1 h before PBS or LPS (Sigma, Escherichia coli. 055:B5) intratracheal injection (5 mg/kg in 50 μL of PBS)[26],[27]. Mice were sacrificed at 6 h post-dosage and the left lung collected for histological examination or MPO activity measurement. Lung tissue was fixed with 10% formalin before embedding with paraffin wax and routine H&E staining. MPO activity was measured as described earlier. The right lobes were prepared for W/D weight ratio determination or BALF analysis. To obtain the W/D weight ratio, wet tissues were weighed immediately after collection, dried in the oven at 80 °C for 48 h and re-weighed. For post-treatment experiments, mice treated with vehicle or 3,5-DCQA (50 mg/kg) intraperitoneally 1 h after LPS treatment.
# Mice were sacrificed and hilum of the left lung sealed. BALF was collected following injection with 0.2, 0.2, 0.3, 0.3 or 0.5 mL PBS. BALF samples were combined and centrifuged at 1,000 rpm for 15 min at 4 °C. Total proteins in the supernatant fraction were determined using the protein assay dye (BIO-RAD, 500-0006) with BSA as the reference and TNF-α and IL-6 levels measured with ELISA kits (eBioscience, 88-7324-88 and 88-7064-88). Cell pellets from BALF were resuspended in 100 μL PBS and cytospun (200 g, 3 min) onto a glass microscope slide, followed by staining with Liu’s stain. Neutrophils were counted under a light microscope in five randomly selected fields (×200 magnification)[60].
# [13] = test system: Src family kinases; assay: Immunoblotting of Src family kinase phosphorylation in fMLF-activated neutrophils; type: cell-based, human; conditions: 10 μM, 5 min before fMLF (0.1 μM) 0.5 min, Western blot; listed as 3,5-DCQA
# Protocol: as §2
# [14] = test system: LTB4-induced human neutrophils; assay: Elastase release in LTB4-induced neutrophils; type: cell-based; conditions: Neutrophil, inducer LTB4, Table S2
# Protocol: as §1
# [15] = target: T4, Human proteinase 3 (Homo sapiens, UniProt P24158); assay: Serine protease enzyme inhibition assay, proteinase 3; type: biochemical; conditions: mean ± S.E.M. (n ≥ 3)
# T4 construct: purchased Merk 539483
# T4 sequence (P24158 28-256): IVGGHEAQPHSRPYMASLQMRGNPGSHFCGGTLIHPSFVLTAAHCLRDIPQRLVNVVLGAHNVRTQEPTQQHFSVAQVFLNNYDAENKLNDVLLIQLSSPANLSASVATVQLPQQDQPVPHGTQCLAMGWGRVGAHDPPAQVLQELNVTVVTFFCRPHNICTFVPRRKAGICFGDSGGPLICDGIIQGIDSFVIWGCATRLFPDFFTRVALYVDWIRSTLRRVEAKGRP
# [16] = fMLF/CB-activated human neutrophils
# [17] = Neutrophil, fMLF/CB-activated human neutrophils
# [18] = pretreatment i.p. 1 h before LPS, 6 h
# [19] = read-out: IC50 Thrombin, enzyme assay, mean ± S.E.M. (n ≥ 3)
Structure (SMILES),"IC50 ([1]; Homo sapiens, Neutrophil)","IC50 [1, 16]",IC50 [2],IC50 [4],IC50 [6],"IC50 [7, 17]",IC50 [11],selectivity of inhibitory effect among serine proteases [11],IC50 [15],"IC50 [4, 19]","IC50 [7, 16]",further results
"O=C(C=Cc1ccc(O)c(O)c1)OC1CC(O)(C(=O)O)CC(OC(=O)C=Cc2ccc(O)c(O)c2)C1O (stereo not drawn) [Compound 6, 3,5-dicaffeoylquinic acid]",12 ± 0.6 µM,> 10 µM,> 30 µM,> 30 µM,> 30 µM,1920 ± 540 nM,1.86 ± 0.06 µM,high selectivity for HNE,> 30 µM,–,–,"phosphorylation of Akt [3]: did not inhibited the phosphorylation; elastase release, myeloperoxidase activity and superoxide production [5]: able to inhibit; phosphorylation of Vav [8]: reduce phosphorylation; also recorded: inhibited the phosphorylation; time detectable in the plasma [9]: 4 h; TNF-α and IL-6 expression [10]: able to reduce; Inh % (HNE inhibition) ([11]; at 30 M (so in the source), Table S3): 90.53 ± 0.52%; pathological features of ALI, post-treatment ([12]; 50 mg/kg i.p. 1 h after LPS): significantly improved; levels of proinflammatory cytokines (TNF-α and IL-6) in BALF [12, 18]: Reduced levels; lung edema (W/D weight ratio) [12, 18]: improve lung edema; accumulation / infiltration of neutrophils in lung tissue (MPO activity, BALF, histology) ([12]; pretreatment i.p. 1 h before LPS, 6 h, listed as 3,5-DCQA): suppress accumulation of neutrophils; also recorded: significantly reduced; pathological features of ALI (hemorrhage, infiltrating neutrophils, thickening of alveolar wall) ([12]; pretreatment i.p. 1 h before LPS, IKWE 500 mg/kg, 3,5-DCQA 50 mg/kg): significantly improved; phosphorylation of SFKs [13]: reduce phosphorylation; also recorded: inhibited the phosphorylation; IC50 [14]: 2900 ± 550 nM"
"CC1=C(C)C2C3=CCC4[C@@]5(C)CC[C@H](O)C(C)(C)C5CC[C@@]4(C)[C@]3(C)CC[C@@]2(C(=O)O)CC1 (stereo partly drawn) [Compound 15-2, sanguisorbigenin]",0.2 ± 0.02 µM,–,11.4 ± 0.2 µM,11.8 ± 2.2 µM,> 30 µM,260 ± 100 nM,24.7 ± 0.48 µM,non-selective inhibitory effects,14.8 ± 0.59 µM,–,–,"IC50 HNE (NE activity / elastase release) [1, 16]: good inhibitory effects; efficacy relative to ursolic acid ([7]; fMLF-induced neutrophils): 5 fold; IC50 O2^.− generation [7, 16]: good inhibitory effects"
C[C@@H]1O[C@@H](O[C@H]2[C@H](OC(=O)[C@]34CC[C@@H](C)[C@@](C)(O)[C@H]3C3=CC[C@@H]5[C@@]6(C)CC[C@H](O[C@@H]7OC[C@H](O)[C@H](O[C@@H]8O[C@H](CO)[C@@H](O)[C@H](O)[C@H]8O)[C@H]7O[C@@H]7O[C@@H](C)[C@H](O)[C@@H](O)[C@H]7O)C(C)(C)[C@@H]6CC[C@@]5(C)[C@]3(C)CC4)O[C@H](CO)[C@@H](O)[C@@H]2O)[C@H](O)[C@H](O)[C@H]1O [Compound 15],–,7.99 ± 1.18 µM,> 30 µM,–,> 30 µM,–,> 30 µM,–,> 30 µM,> 30 µM,> 10000 nM,–
"N#C/C=C1/C=C[C@@H](O)C[C@H]1O[C@@H]1O[C@H](CO)[C@@H](O)[C@H](O)[C@H]1O [Compound 18, menisdaurin]",–,> 10 µM,> 30 µM,–,> 30 µM,–,> 30 µM,–,> 30 µM,> 30 µM,> 10000 nM,–
"N#CC=C1C=CC(O)CC1OC1OC(CO)C(O)C(O)C1O (stereo not drawn) [Compound 19, menisdaurin F]",> 10 µM,–,> 30 µM,> 30 µM,> 30 µM,> 10000 nM,> 30 µM,–,> 30 µM,–,–,–
